Source: patent US20210330611A1, “THERAPY FOR NEUROLOGICAL DISEASES/DISORDERS” (priority 2020, published 2021)
Counter-ions that a name gives are not always drawn. Like-named read-outs stand apart in the source and are kept apart here.

What was measured:
[1] = test system: fibrin-induced microglia activation; assay: Image-based assay of fibrin-induced microglia activation (HTS and dose response); type: cell-based, rat; conditions: for IC50 / inhibition at 10 µM: Rattus norvegicus, Microglia; for inhibition at 10 µM: read-out: Fibrin % inhibition
[2] = test system: LPS-induced microglia activation; assay: Image-based assay of LPS-induced microglia activation (HTS and dose response); type: cell-based, rat; conditions: Rattus norvegicus, Microglia; for inhibition at 10 µM: read-out: LPS % inhibition
[3] = test system: fibrin- and LPS-induced microglia activation; assay: cells; type: cell-based, rat; conditions: for inhibition at 10 µM: Rattus norvegicus
in vitro [4] = conditions: rat, Cell Toxicity IC50 (uM) [cFib assay]
in vitro [5] = conditions: rat
primary rat microglia [6] = assay: Cell toxicity (dead cells, size <150 μm2) in LPS assay; conditions: for IC50: read-out: Cell Toxicity IC50 (uM) [LPS assay]
primary rat microglia [7] = assay: Cell toxicity (dead cells, size <150 μm2) in coated fibrin (cFib) assay;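 on Fibrin % cell toxicity: share of dead cells sized under 150 µm2 at 10 µM in fibrin-stimulated microglia HTS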
[8] = 48 h, Table 1, dose response 0.001-20 μM, triplicates, primary rat microglia, 48 h, read-out: Fibrin IC50
[9] = dose response, fibrin-induced microglia activation, read-out: Fibrin IC50
[10] = fibrin-induced microglia activation, dose response, read-out: Fibrin IC50 (uM) (Suppl. Table 7)
[11] = primary microglia HTS, fibrin stimulation, increased cell size (>800 μm^2) as marker of activation
[12] = 48 h, Table 1, dose response 0.001-20 μM, triplicates, primary rat microglia, 48 h, read-out: LPS IC50
[13] = 48 h, primary microglia HTS, LPS stimulation, increased cell size (>800 μm^2) as marker of activation
[14] = LPS-induced microglia activation, dose response, read-out: LPS IC50 (uM) (Suppl. Table 7)
[15] = dose response, LPS-induced microglia activation, read-out: LPS IC50
[16] = HTS of 1907 compounds, quadrant by fibrin and LPS inhibition
[17] = Microglia, HTS hit classification, read-out: Hit
[18] = hit classification in microglia HTS, read-out: Cherry-picked Hit (Suppl. Table 7)
[19] = quadrant by fibrin and LPS inhibition in HTS of 1907 compounds
[20] = primary microglia HTS, LPS stimulation, decreased size (<150 μm^2) as marker of toxicity
[21] = primary microglia HTS, fibrin stimulation, decreased size (<150 μm^2) as marker of toxicity
[22] = Table 3, read-out: Fibrin IC50 (uM) (Suppl. Table 7)
[23] = primary HTS, 10 μM, fibrin-stimulated primary microglia
[24] = Table 3, read-out: LPS IC50 (uM) (Suppl. Table 7)
[25] = primary HTS, 10 μM, LPS-stimulated primary microglia
[26] = Microglia, Table 3, read-out: Cherry-picked Hit (Suppl. Table 7)

| Compound | IC50 [1, 8] | IC50 [1, 9] | IC50 [1, 10] | inhibition at 10 µM [1, 11] | IC50 [2, 12] | inhibition at 10 µM [2, 13] | IC50 [2, 14] | IC50 [2, 15] | Quadrant (FIG. 5b) [3, 16] | inhibition at 10 µM [3, 17] | inhibition at 10 µM [3, 18] | Quadrant (FIG. 5b) ([3]; Table 1, screen at 10 μM) | Quadrant (FIG. 5b) [3, 19] | IC50 (in vitro [4]; cFib assay) | IC50 (in vitro [5]) | LPS % cell toxicity (primary rat microglia [6]; [20]) | Fibrin % cell toxicity (primary rat microglia [7]; [21]) | IC50 [1, 22] | IC50 [2, 24] | inhibition at 10 µM [3, 26] | further results |
| --- | --- | --- | --- | --- | --- | --- | --- | --- | --- | --- | --- | --- | --- | --- | --- | --- | --- | --- | --- | --- | --- |
| CCCCC(=O)O[C@]1(C(=O)CO)[C@@H](C)C[C@H]2[C@@H]3CCC4=CC(=O)C=C[C@]4(C)[C@@]3(F)[C@@H](O)C[C@@]21C [Betamethasone valerate, reference compound] | 20 µM | 20 µM | 20 µM | 69% | > 20 µM | 55% | > 20 µM | > 20 µM | Q2 | > 50% | > 50% | Q2 | Q2 | > 20 µM | > 20 µM | 1% | 1% |  |  |  |  |
| C[C@H]1C[C@H]2[C@@H]3CCC4=CC(=O)C=C[C@]4(C)[C@@]3(F)[C@@H](O)C[C@]2(C)[C@@]1(O)C(=O)CO [Betamethasone, reference compound] | < 0.001 µM | < 0.001 µM | < 0.001 µM | 103% | 0.01 µM | 94% | 0.01 µM | 0.01 µM | Q2 | > 50% |  | Q2 | Q2 | > 20 µM | > 20 µM |  |  | < 0.001 µM | 0.01 µM | > 50% | IC50 ([1]; Table 7, read-out: fib_IC50): 0.002 µM; inhibition at 10 µM [1, 23]: -4%; IC50 ([2]; Table 7, read-out: LPS_IC50): 0.002 µM; inhibition at 10 µM [2, 25]: -9%; Quadrant (FIG. 5b) ([3]; Table 2, screen at 10 μM): Q2; Quadrant (FIG. 5b) ([3]; Table 3, screen at 10 μM): Q2; Quadrant (FIG. 5b) ([3]; primary HTS, 10 μM): Q4; IC50 (in vitro [4]; Table 3): > 20 µM; IC50 (primary rat microglia [6]; LPS assay): > 20 µM; IC50 (primary rat microglia [7]; Rattus norvegicus, Microglia, read-out: dead_IC50 (uM), Table 7, fibrin or LPS assay not specified): 2.08 µM |
| NCCc1cc[nH]n1 [Betazole hydrochloride, reference compound] | 12 µM | 12 µM | 12 µM | 59% | > 20 µM | 38% | > 20 µM | > 20 µM | Q3 | > 50% |  | Q3 | Q3 | > 20 µM | > 20 µM | 1% | 1% | 12 µM | > 20 µM | > 50% | Fibrin Selectivity [1]: 2; Fibrin Selectivity (LOG10) [1]: 0.22; Quadrant (FIG. 5b) ([3]; Table 3, screen at 10 μM): Q3; IC50 (in vitro [4]; Table 3): > 20 µM; IC50 (primary rat microglia [6]; LPS assay): > 20 µM |
| CC(=O)O[C@]1(C(C)=O)CC[C@H]2[C@@H]3C=C(Cl)C4=CC(=O)CC[C@]4(C)[C@H]3CC[C@@]21C [Chlormadinone acetate, reference compound] |  |  |  | 72% | > 20 µM | 43% | > 20 µM | > 20 µM | Q3 | > 50% | > 50% | Q3 | Q3 | > 20 µM | > 20 µM | 0% | 1% |  |  |  |  |
| NS(=O)(=O)c1cc(C2(O)NC(=O)c3ccccc32)ccc1Cl (stereo not shown) [Chlorthalidone, reference compound] | > 20 µM | > 20 µM | > 20 µM | 77% | > 20 µM | 35% | > 20 µM | > 20 µM | Q3 | > 50% | > 50% | Q3 | Q3 | > 20 µM | > 20 µM | 1% | 2% |  |  |  |  |
| CCC(=O)O[C@]1(C(=O)CCl)[C@@H](C)C[C@H]2[C@@H]3CCC4=CC(=O)C=C[C@]4(C)[C@@]3(F)[C@@H](O)C[C@@]21C [Clobetasol propionate, reference compound] | < 0.001 µM | < 0.001 µM | < 0.001 µM | 108% | < 0.001 µM | 105% | < 0.001 µM | < 0.001 µM | Q2 | > 50% | > 50% | Q2 | Q2 | > 20 µM | > 20 µM | 3% | 3% |  |  |  | inhibition at 10 µM [1, 23]: -22%; inhibition at 10 µM [2, 25]: 30%; Quadrant (FIG. 5b) ([3]; primary HTS, 10 μM): Q4; LPS % cell toxicity (primary rat microglia [6]; primary HTS, 10 μM, LPS assay, dead cells size <150 μm2): 2%; Fibrin % cell toxicity (primary rat microglia [7]; primary HTS, 10 μM, fibrin assay, dead cells size <150 μm2): 1% |
| Clc1ccc(C(OCCN2CCCCC2)c2ccccc2)cc1 (stereo not shown) [Cloperastine hydrochloride, reference compound] | 7 µM | 7 µM | 7 µM | 64% | 9 µM | 44% | 9 µM | 9 µM | Q3 | > 50% | > 50% | Q3 | Q3 | > 20 µM | > 20 µM | 0% | 2% |  |  |  |  |
| CC(=O)OCC(=O)[C@@]12N=C(C)O[C@@H]1C[C@H]1[C@@H]3CCC4=CC(=O)C=C[C@]4(C)[C@H]3[C@@H](O)C[C@@]12C [Deflazacort, reference compound] | < 0.001 µM | < 0.001 µM | < 0.001 µM | 111% | 0.04 µM | 105% | 0.04 µM | 0.04 µM | Q2 | > 50% |  | Q2 | Q2 | 20 µM | > 20 µM | 4% | 2% | < 0.001 µM | 0.04 µM | > 50% | Fibrin Selectivity [1]: 42; Fibrin Selectivity (LOG10) [1]: 1.63; IC50 ([1]; Table 6, read-out: Fibrin IC50 (uM) (Suppl. Table 7)): < 0.001 µM; Fibrin Selectivity (LOG10) ([1]; fibrin vs LPS, LOG10, Table 6): 1.63; Fibrin Selectivity ([1]; fibrin vs LPS, Table 6): 42; IC50 ([2]; Table 6, read-out: LPS IC50 (uM) (Suppl. Table 7)): 0.04 µM; Quadrant (FIG. 5b) ([3]; Table 3, screen at 10 μM): Q2; Quadrant (FIG. 5b) ([3]; microglia HTS, Table 6): Q2; IC50 (in vitro [4]; Table 3): 20 µM; IC50 (in vitro [4]; cFib assay, Table 6): ≥ 20 µM; IC50 (primary rat microglia [6]; LPS assay): > 20 µM; IC50 (primary rat microglia [6]; LPS assay, Table 6): > 20 µM |
| CN(C)[C@@H]1C(O)=C(C(N)=O)C(=O)[C@@]2(O)C(O)=C3C(=O)c4c(O)ccc(Cl)c4[C@@H](O)[C@H]3C[C@@H]12 [Demeclocycline hydrochloride, reference compound] | 6 µM | 6 µM | 6 µM | 75% | 15 µM | 31% | 15 µM | 15 µM | Q3 | > 50% |  | Q3 | Q3 | > 20 µM | > 20 µM | 1% | 1% | 6 µM | 15 µM | > 50% | Fibrin Selectivity [1]: 2; Fibrin Selectivity (LOG10) [1]: 0.38; Quadrant (FIG. 5b) ([3]; Table 3, screen at 10 μM): Q3; IC50 (in vitro [4]; Table 3): > 20 µM; IC50 (primary rat microglia [6]; LPS assay): > 20 µM |
